Results reported in patent publication US20050220888A1, “Controlled release compositions and methods for using same” (priority 2002, published 2005).
Counter-ions that a name gives are not always drawn.

Experiments:
L929 lung fibroblast = details: shown by previous studies; cited from earlier work
[1] = encapsulated in a variety of shell materials, administered to beagles; cited from earlier work
[2] = system: IL-6 production by HUVEC cells; assay: Inhibition of histamine-induced IL-6 mRNA production (RT-PCR against HPRT); assay type: cell-based, human; details: 5 hours
Source text: Various assays also exist for identifying a highest pharmacological activity enantiomer of a given pharmacologically active agent. Where the pharmaceutical activity is as a histamine antagonist, IL-6 production by HUVEC cells is a cell biomarker of histamine activity and is used to assess the relative antagonistic activity of prospective H1 blockers. IL-6 production in human endothelial cells is known to be induced by histamine due to H1 and H2 receptor binding with H1 the dominant effect. Delneste, et al. As H1 antagonism is directly linked to reduced emesis during motion sickness treatment, this assay serves as an in vitro methodology for the selection of potential motion sickness and antihistamine candidates. Realtime RT-PCR analysis of IL-6 mRNA synthesis in HUVEC cells stimulated with histamine is employed as an in vitro assay for the analysis of the relative efficacy of potential antihistaminic agents.
A preferred assay for measuring activity of phenothiazine and other histamine antagonists comprises: providing at least a first viable culture and a second viable culture comprising Huvec cells; exposing the first viable culture to a first combination comprising histamine and the (+)-enantiomer of the phenothiazine under conditions effective to inhibit IL-6 mRNA expression; exposing the second viable culture to a combination comprising histamine and the (−)-enantiomer of the phenothiazine under conditions effective to inhibit IL-6 mRNA expression; measuring inhibition of IL-6 mRNA expression induced by the first combination and the second combination after at least four hours to identify a (+)-enantiomer inhibition value and a (−)-enantiomer inhibition value; and selecting as the highest pharmacological activity enantiomer the enantiomer having the greater inhibition value selected from the group consisting of the (+)-enantiomer inhibition value and the (−)-enantiomer inhibition value.
Huvec cells were plated and grown to confluence in 6-well plates. […] Total RNA was isolated using Tri-reagent and subjected to reverse transcription polymerase chain reaction (RT-PCR) analysis of IL-6 production using semiquantitative analysis against HPRT expression (control gene).
The procedures of Example 3 were repeated using the (+)-enantiomer (#2) and the (−)-enantiomer (#1) of EPZ at 10^−5 molar and 10^−6 molar, and TPZ at 10^−5 molar.

C=C(C)C(=O)OCC(O)COc1ccc(C(C)(C)c2ccc(OCC(O)COC(=O)C(=C)C)cc2)cc1 (stereo not drawn) [BisGMA]
cytotoxicity of control in this assay (L929 lung fibroblast): significantly cytotoxic

CC(CN1c2ccccc2Sc2ccccc21)N(C)C (racemic) [Promethazine, promethazine hydrochloride]
nasal irritation [1]: severe nasal irritation was observed | inhibition of histamine stimulation of IL-6 production ([2]; 10^−5 M with Histamine 10^−4 M, relative to cells stimulated only with histamine): 50%

NCCc1c[nH]cn1 [Histamine]
increase in IL-6 mRNA production ([2]; Histamine alone 10^−4 M, versus endogenous production): 50%

CC(CN1c2ccccc2Sc2ccccc21)N(C)C.Cl (single isomer, unassigned; (-)) [(−) enantiomer, (−)-Promethazine hydrochloride]
reduction in IL-6 production ([2]; 10^−5 M with Histamine 10^−4 M): 50%

CC(CN1c2ccccc2Sc2ccccc21)N(C)C.Cl (single isomer, unassigned; (+)) [(+) enantiomer, (+)-Promethazine hydrochloride]
IL-6 production reduced to % of the histamine stimulated cell ([2]; 10^−5 M with Histamine 10^−4 M): 90%
